Measurements published in patent US20100068150A1, “Selective Caspase Inhibitors” (The Board of Trustees of the Leland Stanford Junior …, priority 2006, published 2010).

Experiments:
[1] = tested on: endogenous caspases-3, 7, 9 and exogenous recombinant caspase-8 in 293 extracts; assay: Labeling in 293 extracts with exogenous recombinant caspase-8 and cytochrome c/dATP; format: binding
Procedure: (a.) Hypotonic 293 cytosolic extracts were induced to undergo intrinsic apoptosis by addition of cytochrome c/dATP. […] Samples were analyzed by SDS-PAGE followed by biotin blotting using streptavidin-HRP. (b) The identity of individual caspases was confirmed via immunoprecipitation using specific anti-sera for caspases-3, 7 and 9 (also see FIG. 5B for immunoprecipitation of caspases-3 and 7 after KMB01 labeling). Extracts (293) were activated with cytochrome c/dATP for 10 minutes, labeled by addition of indicated probes (100 nM final concentration for bAB06 and bAB13 and 10 μM final concentration for KMB01) and labeled caspases precipitated using specific anti-sera as described in the Methods section. I is input, P is pellet, S is supernatant after specific precipitation. […] Labeling of caspases was monitored by SDS-PAGE followed by biotin blotting with streptavidin-HRP. […]
(§1) Selective labeling of endogenous caspases in cell extracts and live cells with active site probes was carried out as follows: Hypotonic 293 cytosolic extracts were induced to undergo intrinsic apoptosis by addition of cytochrome c/dATP. […] Samples were analyzed by SDS-PAGE followed by biotin blotting using streptavidin-HRP. […] Labeling of caspases was monitored by SDS-PAGE followed by biotin blotting with streptavidin-HRP. […]
Protein concentration of hypotonic extracts was measured using a standard Bradford Protein Assay (BioRad). […]

[2] = tested on: endogenous caspases in 293 cytosolic extracts; assay: Direct labeling of endogenous caspases in apoptotic 293 cytosolic extracts; format: binding; settings: 10 min after cytochrome c/dATP; bAB06 and bAB13 at 10 nM to 10 μM
Procedure: (a.) Hypotonic 293 cytosolic extracts were induced to undergo intrinsic apoptosis by addition of cytochrome c/dATP. KMB01, bAB06 and bAB13 were added 10 minutes after activation and labeling of caspase active sites was carried out for three minutes. Samples were analyzed by SDS-PAGE followed by biotin blotting using streptavidin-HRP. (b) The identity of individual caspases was confirmed via immunoprecipitation using specific anti-sera for caspases-3, 7 and 9 (also see FIG. 5B for immunoprecipitation of caspases-3 and 7 after KMB01 labeling). Extracts (293) were activated with cytochrome c/dATP for 10 minutes, labeled by addition of indicated probes (100 nM final concentration for bAB06 and bAB13 and 10 μM final concentration for KMB01) and labeled caspases precipitated using specific anti-sera as described in the Methods section. […] Labeling of caspases was monitored by SDS-PAGE followed by biotin blotting with streptavidin-HRP. […]
as §1

Compound | inhibition of caspases in 293 extracts with added caspase-8 ([1]; AB06 10 μM added in conjunction with cytochrome c/dATP) | labeling of endogenous caspases in activated 293 extracts [2] | labeling of caspases in 293 extracts with added caspase-8 ([1]; recombinant caspase-8 100 nM, cytochrome c/dATP, probes 10 μM, 30 min)
Cc1cccc(C)c1C(=O)OCC(=O)[C@H](CC(=O)O)NC(=O)[C@@H](NC(=O)[C@H](Cc1ccncc1)NC(=O)[C@H](CC(=O)O)NC(=O)Cc1ccc(O)c([N+](=O)[O-])c1)C(C)C [AB06, Np-D-3-V-D-DMBA] | caspases-3 and 7 were selectively inhibited | – | –
Bio-EVD-AOMK [KMB01, reference compound] | – | labeled a 35 kDa caspase-9 species and the two primary mature forms of caspase3 at 17 and 20 kDa as well the 33 kDa full length N-peptide processed and 20 kDa mature forms of caspase-7 | strong labeling of the endogenous caspases-3, 7, and 9 as well as the exogenously added caspase-8
